According to ChEMBL document CHEMBL1136085, “Structure-activity study of novel tricyclic benzazepine arginine vasopressin antagonists” (Bioorg Med Chem Lett, 2003):

What was measured:
[1] = target: Vasopressin V2 receptor (Rattus norvegicus, UniProt Q00788); test: Inhibition of [3H]AVP binding to Dawley rat kidney medullary vasopressin V2 receptor.
[2] = target: T1, Vasopressin V1a receptor (Rattus norvegicus, UniProt P30560); test: Inhibition of [3H]AVP binding to Dawley rat hepatic vasopressin V1a receptor.
T1 sequence (P30560 whole entry): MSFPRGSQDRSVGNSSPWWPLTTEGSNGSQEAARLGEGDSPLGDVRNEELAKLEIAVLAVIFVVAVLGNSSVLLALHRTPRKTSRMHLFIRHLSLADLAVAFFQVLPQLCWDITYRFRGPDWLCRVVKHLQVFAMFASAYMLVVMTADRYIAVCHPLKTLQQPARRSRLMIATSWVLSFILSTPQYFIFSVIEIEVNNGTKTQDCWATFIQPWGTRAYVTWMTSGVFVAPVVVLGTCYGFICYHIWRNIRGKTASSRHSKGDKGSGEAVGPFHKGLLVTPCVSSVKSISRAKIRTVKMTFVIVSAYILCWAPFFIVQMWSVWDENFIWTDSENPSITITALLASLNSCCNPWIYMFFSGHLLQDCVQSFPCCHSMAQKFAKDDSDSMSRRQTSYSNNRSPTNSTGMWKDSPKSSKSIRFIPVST

[3] = system: Rattus norvegicus; test: Aquaretic effect was measured by the amount of urine collected after 4 hr at a dose of 30 mg/kg ip in 6 Dawley rats; format: functional; settings: route intraperitoneal
[4] = system: Rattus norvegicus; test: Aquaretic effect was measured by the amount of urine collected after 4 hr at a dose of 10 mg/kg ip in 2 Dawley rats; format: functional; settings: route intraperitoneal
[5] = target: Vasopressin V1a receptor (Rattus norvegicus) (UniProt P30560); test: Compound was tested for the inhibition of [3H]AVP binding to Dawley rat hepatic Vasopressin V1a receptor; settings: concentration not given here
Vasopressin V1a receptor (Rattus norvegicus), sequence (P30560 whole entry, looked up): as the sequence (P30560 whole entry) above

[6] = target: Vasopressin V2 receptor (Rattus norvegicus) (UniProt Q00788); test: Compound was tested for the inhibition of [3H]AVP binding to Dawley rat kidney medullary Vasopressin V2 receptor; settings: concentration not given here
Vasopressin V2 receptor (Rattus norvegicus), sequence (Q00788 whole entry): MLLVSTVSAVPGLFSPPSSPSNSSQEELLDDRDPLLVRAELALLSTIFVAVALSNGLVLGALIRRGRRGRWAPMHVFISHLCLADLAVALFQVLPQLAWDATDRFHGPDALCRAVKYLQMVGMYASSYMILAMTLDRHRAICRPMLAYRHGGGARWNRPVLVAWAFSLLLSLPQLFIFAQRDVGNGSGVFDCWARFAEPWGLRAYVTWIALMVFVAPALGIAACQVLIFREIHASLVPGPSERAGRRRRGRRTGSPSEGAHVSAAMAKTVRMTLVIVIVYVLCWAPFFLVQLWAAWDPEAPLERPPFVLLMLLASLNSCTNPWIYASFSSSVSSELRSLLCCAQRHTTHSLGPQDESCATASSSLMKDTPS

[7] = target: T1, Vasopressin V1a receptor; test: Compound was tested for the inhibition of [3H]AVP binding to Dawley […]

Vasopressin V2 receptor, sequence (Q00788 whole entry): as above

IC50 [1] | IC50 [2] | SMILES | also measured
13 nM | 240 nM | Cc1cccc(C(=O)Nc2ccc(C(=O)N3Cc4cccn4Cc4ccccc43)cc2)c1C | 
4 nM | 7 nM | O=C(Nc1ccc(C(=O)N2Cc3cccn3Cc3ccccc32)cc1)c1ccc(F)cc1Cl | 
 |  | Cc1ccccc1C(=O)Nc1ccc(C(=O)N2Cc3ccccc3Nc3ccccc32)cc1 | Urine volume [3]: 7.4 ml 4hr-1
540 nM |  | O=C(Nc1ccc(C(=O)N2Cc3cccn3Cc3ccccc32)cc1)c1ccccc1O | 
860 nM | 2500 nM | Cc1ccccc1C(=O)Nc1ccc(C(=O)N2c3ccccc3CCc3ccccc32)cc1 | 
 |  | Cc1ccc(F)cc1C(=O)Nc1ccc(C(=O)N2Cc3cccn3Cc3ccccc32)c(Cl)c1 [LIXIVAPTAN] | Urine volume [4]: 22 ml 4hr-1
1700 nM | 1500 nM | Cc1ccccc1C(=O)Nc1ccc(C(=O)N2Cc3ccccc3Oc3ccccc32)cc1 | 
1.5 nM |  | Cc1ccc(F)cc1C(=O)Nc1ccc(C(=O)N2Cc3cccn3Cc3ccccc32)cc1 | Urine volume [4]: 21.8 ml 4hr-1
50000 nM |  | Cc1ccccc1C(=O)Nc1ccc(C(=O)N2Cc3ccccc3CCc3ccccc32)cc1 | inhibition [5]: 60%; inhibition [6]: 80%; IC50 [7]: 50000 nM
 |  | O=C(Nc1ccc(C(=O)N2Cc3cccn3Cc3ccccc32)cc1)c1ccccc1Cl | Urine volume [4]: 12.4 ml 4hr-1
7 nM | 2 nM | O=C(Nc1ccc(C(=O)N2Cc3cccn3Cc3ccccc32)cc1)c1ccccc1Br | 
